Data reported in PubChem BioAssay (NCI).
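Step 1: Grow cells in 96-well plates. Step 2: Expose to compound for 48 hours at 5 concentrations. Step 3: Interpolate endpoints linearly; if unreached, use highest concentration. TGI: concentration producing complete growth inhibition.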

Tests used:
Assay in all cases: DTP human tumour cell line panel, 48 h
T-47D breast = test system: T-47D breast
MDA-MB-435 = test system: MDA-MB-435
UACC-257 melanoma = test system: UACC-257 melanoma
NCI/ADR-RES ovarian = test system: NCI/ADR-RES ovarian
RXF 393 renal = test system: RXF 393 renal
M14 melanoma = test system: M14 melanoma
SW-620 colon = test system: SW-620 colon
NCI-H23 lung = test system: NCI-H23 lung
HOP-92 NSCLC = test system: HOP-92 NSCLC
SF-268 CNS = test system: SF-268 CNS
MCF7 breast = test system: MCF7 breast
MDA-MB-231 breast = test system: MDA-MB-231 breast
CCRF-CEM leukemia = test system: CCRF-CEM leukemia
OVCAR-5 ovarian = test system: OVCAR-5 ovarian
SK-MEL-2 melanoma = test system: SK-MEL-2 melanoma
SK-OV-3 ovarian = test system: SK-OV-3 ovarian
IGROV1 ovarian = test system: IGROV1 ovarian
SF-539 CNS = test system: SF-539 CNS
HCT-15 colon = test system: HCT-15 colon
SK-MEL-5 melanoma = test system: SK-MEL-5 melanoma
ACHN renal = test system: ACHN renal
OVCAR-3 ovarian = test system: OVCAR-3 ovarian
RPMI-8226 leukemia = test system: RPMI-8226 leukemia
KM12 colon = test system: KM12 colon
HCT-116 colon = test system: HCT-116 colon
K-562 leukemia = test system: K-562 leukemia
TK-10 renal = test system: TK-10 renal
HL-60(TB) leukemia = test system: HL-60(TB) leukemia
786-0 renal = test system: 786-0 renal
UO-31 renal = test system: UO-31 renal
LOX IMVI melanoma = test system: LOX IMVI melanoma
MOLT-4 leukemia = test system: MOLT-4 leukemia
PC-3 prostate = test system: PC-3 prostate
MDA-N = test system: MDA-N
A498 renal = test system: A498 renal
SF-295 CNS = test system: SF-295 CNS
HT29 colon = test system: HT29 colon
HS 578T breast = test system: HS 578T breast
U251 CNS = test system: U251 CNS
NCI-H226 lung = test system: NCI-H226 lung
OVCAR-8 ovarian = test system: OVCAR-8 ovarian
OVCAR-4 ovarian = test system: OVCAR-4 ovarian
HCC-2998 colon = test system: HCC-2998 colon
DU-145 prostate = test system: DU-145 prostate
CAKI-1 renal = test system: CAKI-1 renal
SK-MEL-28 melanoma = test system: SK-MEL-28 melanoma
HOP-62 NSCLC = test system: HOP-62 NSCLC
NCI-H460 lung = test system: NCI-H460 lung
NCI-H522 lung = test system: NCI-H522 lung
EKVX NSCLC = test system: EKVX NSCLC
A549 NSCLC = test system: A549 NSCLC
MALME-3M melanoma = test system: MALME-3M melanoma
SN12C renal = test system: SN12C renal
SNB-75 CNS = test system: SNB-75 CNS
SNB-19 CNS = test system: SNB-19 CNS
UACC-62 melanoma = test system: UACC-62 melanoma
SR leukemia = test system: SR leukemia
COLO 205 colon = test system: COLO 205 colon

COc1ccc(C2=NN(C(=O)c3ccc(Cl)cc3)C(O)(c3cc(F)c(Cl)cc3Cl)C2)cc1OC (stereo not drawn)
TGI (T-47D breast): > 100 µM | TGI (MDA-MB-435): > 100 µM | TGI (UACC-257 melanoma): > 100 µM | TGI (NCI/ADR-RES ovarian): > 100 µM | TGI (RXF 393 renal): > 100 µM | TGI (M14 melanoma): > 100 µM | TGI (SW-620 colon): > 100 µM | TGI (NCI-H23 lung): > 100 µM | TGI (HOP-92 NSCLC): > 100 µM | TGI (SF-268 CNS): > 100 µM | TGI (MCF7 breast): > 100 µM | TGI (MDA-MB-231 breast): > 100 µM | TGI (CCRF-CEM leukemia): > 100 µM | TGI (OVCAR-5 ovarian): > 100 µM | TGI (SK-MEL-2 melanoma): > 100 µM | TGI (SK-OV-3 ovarian): > 100 µM | TGI (IGROV1 ovarian): > 100 µM | TGI (SF-539 CNS): > 100 µM | TGI (HCT-15 colon): > 100 µM | TGI (SK-MEL-5 melanoma): > 100 µM | TGI (ACHN renal): > 100 µM | TGI (OVCAR-3 ovarian): > 100 µM | TGI (RPMI-8226 leukemia): > 100 µM | TGI (KM12 colon): > 100 µM | TGI (HCT-116 colon): > 100 µM | TGI (K-562 leukemia): > 100 µM | TGI (TK-10 renal): > 100 µM | TGI (HL-60(TB) leukemia): 2.2 µM | TGI (786-0 renal): > 100 µM | TGI (UO-31 renal): 10.9 µM | TGI (LOX IMVI melanoma): > 100 µM | TGI (MOLT-4 leukemia): > 100 µM | TGI (PC-3 prostate): > 100 µM | TGI (MDA-N): > 100 µM | TGI (A498 renal): > 100 µM | TGI (SF-295 CNS): > 100 µM | TGI (HT29 colon): > 100 µM | TGI (HS 578T breast): > 100 µM | TGI (U251 CNS): > 100 µM | TGI (NCI-H226 lung): > 100 µM | TGI (OVCAR-8 ovarian): > 100 µM | TGI (OVCAR-4 ovarian): > 100 µM | TGI (HCC-2998 colon): > 100 µM | TGI (DU-145 prostate): > 100 µM | TGI (CAKI-1 renal): 98.4 µM | TGI (SK-MEL-28 melanoma): > 100 µM | TGI (HOP-62 NSCLC): > 100 µM | TGI (NCI-H460 lung): > 100 µM | TGI (NCI-H522 lung): > 100 µM | TGI (EKVX NSCLC): > 100 µM

CC[C@H]1C[C@@H](O)[C@@H]2[C@H](O)[C@H](O)CN2C1
TGI (T-47D breast): > 100 µM | TGI (MDA-MB-435): > 100 µM | TGI (UACC-257 melanoma): > 100 µM | TGI (NCI/ADR-RES ovarian): > 100 µM | TGI (M14 melanoma): > 100 µM | TGI (A549 NSCLC): > 100 µM | TGI (SW-620 colon): > 100 µM | TGI (HOP-92 NSCLC): > 100 µM | TGI (SF-268 CNS): > 100 µM | TGI (MCF7 breast): > 100 µM | TGI (CCRF-CEM leukemia): > 100 µM | TGI (MALME-3M melanoma): > 100 µM | TGI (OVCAR-5 ovarian): > 100 µM | TGI (SK-MEL-2 melanoma): > 100 µM | TGI (SK-OV-3 ovarian): > 100 µM | TGI (IGROV1 ovarian): > 100 µM | TGI (SF-539 CNS): > 100 µM | TGI (HCT-15 colon): > 100 µM | TGI (SK-MEL-5 melanoma): > 100 µM | TGI (ACHN renal): > 100 µM | TGI (SN12C renal): > 100 µM | TGI (OVCAR-3 ovarian): > 100 µM | TGI (RPMI-8226 leukemia): > 100 µM | TGI (SNB-75 CNS): > 100 µM | TGI (KM12 colon): > 100 µM | TGI (HCT-116 colon): > 100 µM | TGI (K-562 leukemia): > 100 µM | TGI (TK-10 renal): > 100 µM | TGI (HL-60(TB) leukemia): > 100 µM | TGI (SNB-19 CNS): > 100 µM | TGI (786-0 renal): > 100 µM | TGI (LOX IMVI melanoma): > 100 µM | TGI (MOLT-4 leukemia): > 100 µM | TGI (PC-3 prostate): > 100 µM | TGI (MDA-N): > 100 µM | TGI (SF-295 CNS): > 100 µM | TGI (HT29 colon): > 100 µM | TGI (HS 578T breast): > 100 µM | TGI (U251 CNS): > 100 µM | TGI (NCI-H226 lung): > 100 µM | TGI (OVCAR-8 ovarian): > 100 µM | TGI (OVCAR-4 ovarian): > 100 µM | TGI (HCC-2998 colon): > 100 µM | TGI (DU-145 prostate): > 100 µM | TGI (SK-MEL-28 melanoma): > 100 µM | TGI (NCI-H460 lung): > 100 µM | TGI (NCI-H522 lung): > 100 µM | TGI (EKVX NSCLC): > 100 µM

CC12OC(=O)[C@@]3(O)CCC4C(C[C@H]5O[C@]56CC=CC(=O)[C@]46C)C45OC[C@H]6C(=O)O[C@@H]1C[C@@]6(C)[C@H](C4=O)C23O5 (stereo partly drawn)
TGI (T-47D breast): 5.27 µM | TGI (MDA-MB-435): 5.2 µM | TGI (UACC-257 melanoma): 4.98 µM | TGI (NCI/ADR-RES ovarian): > 100 µM | TGI (RXF 393 renal): 2.43 µM | TGI (M14 melanoma): 4.32 µM | TGI (A549 NSCLC): 13.7 µM | TGI (SW-620 colon): 4.87 µM | TGI (NCI-H23 lung): 2.18 µM | TGI (HOP-92 NSCLC): 5.67 µM | TGI (SF-268 CNS): 1.91 µM | TGI (MCF7 breast): 3.3 µM | TGI (MDA-MB-231 breast): 2.58 µM | TGI (CCRF-CEM leukemia): 1.45 µM | TGI (MALME-3M melanoma): 5.72 µM | TGI (OVCAR-5 ovarian): 10.7 µM | TGI (SK-MEL-2 melanoma): 9.38 µM | TGI (SK-OV-3 ovarian): 18.6 µM | TGI (IGROV1 ovarian): 2.58 µM | TGI (SF-539 CNS): 0.923 µM | TGI (HCT-15 colon): 4.43 µM | TGI (SK-MEL-5 melanoma): 2.86 µM | TGI (ACHN renal): 8.45 µM | TGI (UACC-62 melanoma): 3.46 µM | TGI (SN12C renal): 5.39 µM | TGI (OVCAR-3 ovarian): 2.77 µM | TGI (RPMI-8226 leukemia): 2.47 µM | TGI (SNB-75 CNS): 20.7 µM | TGI (SR leukemia): 2.46 µM | TGI (KM12 colon): 3.97 µM | TGI (HCT-116 colon): 4.97 µM | TGI (K-562 leukemia): > 100 µM | TGI (TK-10 renal): 3.97 µM | TGI (SNB-19 CNS): 11.8 µM | TGI (786-0 renal): 2.25 µM | TGI (LOX IMVI melanoma): 6.92 µM | TGI (COLO 205 colon): 1.93 µM | TGI (MOLT-4 leukemia): 21.4 µM | TGI (PC-3 prostate): 12.9 µM | TGI (MDA-N): 26.1 µM | TGI (SF-295 CNS): 16.2 µM | TGI (HT29 colon): 8.99 µM | TGI (HS 578T breast): 68.9 µM | TGI (U251 CNS): 5.77 µM | TGI (NCI-H226 lung): 6.98 µM | TGI (OVCAR-8 ovarian): 12.6 µM | TGI (OVCAR-4 ovarian): 8.27 µM | TGI (HCC-2998 colon): 10.5 µM | TGI (DU-145 prostate): 7.77 µM | TGI (CAKI-1 renal): 7.53 µM | TGI (SK-MEL-28 melanoma): 2.06 µM | TGI (HOP-62 NSCLC): 10.4 µM | TGI (NCI-H460 lung): 8.69 µM | TGI (NCI-H522 lung): 1.77 µM | TGI (EKVX NSCLC): 16.6 µM
